Read-outs that look alike come from different tables or passages of the source.
Assays:
[1] = test system: Key Grass and Sedge Weeds as well as Grass Crops; test: Post-emergent Test II herbicidal activity (Table 6); format: in vivo; settings: post-emergence, 336 h; for pest or weed control at 70 g/ha: application rate 70 g ai/ha; for pest or weed control at 140 g/ha: application rate 140 g ai/ha
Method in brief: (§1)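 Greenhouse-grown plants at first or second true leaf stage were sprayed post-emergence with compound in acetone/DMSO-based aqueous spray containing crop oil concentrate and surfactant, at 187 L/ha, highest rate plus ½× to 1/16× dilutions. After 14 d, injury was scored visually versus untreated plants, 0 (none) to 100% (complete kill).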

[2] = test system: Key Broadleaf Weed and Crop Species; test: Post-emergent Test II herbicidal activity (Table 5); format: in vivo; settings: post-emergence, 336 h, post-emergent, 14 days after application; for pest or weed control at 70 g/ha: 70 g ai/ha; for pest or weed control at 140 g/ha: 140 g ai/ha
Method in brief: as §1

[3] = Triticum aestivum, TRZSS (wheat), read-out: Visual Growth Reduction (%) 14 Days After Application, TRZSS
[4] = CYPES: yellow nutsedge (Cyperus esculentus), read-out: Visual Growth Reduction (%) 14 Days After Application, CYPES
[5] = DIGSA: crabgrass (Digitaria sanguinalis), read-out: Visual Growth Reduction (%) 14 Days After Application, DIGSA
[6] = ECHCG: barnyardgrass (Echinochloa crus-galli), read-out: Visual Growth Reduction (%) 14 Days After Application, ECHCG
[7] = ORYSA: rice (Oryza sativa), read-out: Visual Growth Reduction (%) 14 Days After Application, ORYSA
[8] = SETFA: giant foxtail (Setaria faberi), read-out: Visual Growth Reduction (%) 14 Days After Application, SETFA
[9] = SORVU: grain sorghum (Sorghum vulgare), read-out: Visual Growth Reduction (%) 14 Days After Application, SORVU
[10] = ZEAMX: maize, corn (Zea mays), read-out: Visual Growth Reduction (%) 14 Days After Application, ZEAMX
[11] = ABUTH: velvetleaf (Abutilon theophrasti), read-out: Visual Growth Reduction (%) 14 Days After Application ABUTH
[12] = AMARE: redroot pigweed (Amaranthus retroflexus), read-out: Visual Growth Reduction (%) 14 Days After Application AMARE
[13] = BRSNN: oilseed-rape, canola (Brassica napus), read-out: Visual Growth Reduction (%) 14 Days After Application BRSNN
[14] = CHEAL: lambsquarters (Chenopodium album), read-out: Visual Growth Reduction (%) 14 Days After Application CHEAL
[15] = EPHHL: wild poinsettia (Euphorbia heterophylla), read-out: Visual Growth Reduction (%) 14 Days After Application EPHHL
[16] = HELAN: sunflower (Helianthus annuus), read-out: Visual Growth Reduction (%) 14 Days After Application HELAN
[17] = VIOTR: wild pansy (Viola tricolor), read-out: Visual Growth Reduction (%) 14 Days After Application VIOTR

Row | SMILES | pest or weed control at 70 g/ha [1, 3] [%] | pest or weed control at 140 g/ha [1, 3] [%] | pest or weed control at 70 g/ha [1, 4] [%] | pest or weed control at 140 g/ha [1, 4] [%] | pest or weed control at 70 g/ha [1, 5] [%] | pest or weed control at 140 g/ha [1, 5] [%] | pest or weed control at 70 g/ha [1, 6] [%] | pest or weed control at 140 g/ha [1, 6] [%] | pest or weed control at 70 g/ha [1, 7] [%] | pest or weed control at 140 g/ha [1, 7] [%] | pest or weed control at 70 g/ha [1, 9] [%] | pest or weed control at 140 g/ha [1, 9] [%] | pest or weed control at 70 g/ha [1, 10] [%] | pest or weed control at 140 g/ha [1, 10] [%] | pest or weed control at 70 g/ha [2, 11] [%] | pest or weed control at 140 g/ha [2, 11] [%] | pest or weed control at 70 g/ha [2, 12] [%] | pest or weed control at 140 g/ha [2, 12] [%] | pest or weed control at 70 g/ha [2, 13] [%] | pest or weed control at 140 g/ha [2, 13] [%] | further results
1 | Nc1c(Cl)c(C(=O)O)nc(-c2ccc(I)c(F)c2)c1Cl [Compound 145, 4-Amino-3,5-dichloro-6-(3-fluoro-4-iodophenyl)picolinic acid] | 60 to 74 | 60 to 74 | 45 to 59 | 45 to 59 | 85 to 94 | 85 to 94 | 75 to 84 | 75 to 84 | 0 to 29 | 0 to 29 | 85 to 94 | 85 to 94 | 75 to 84 | 75 to 84 | 45 to 59 | 60 to 74 | 75 to 84 | 95 to 100 | 95 to 100 | 95 to 100 | pest or weed control at 70 g/ha [1, 8]: 75 to 84%; pest or weed control at 140 g/ha [1, 8]: 75 to 84%; pest or weed control at 70 g/ha [2, 14]: 95 to 100%; pest or weed control at 140 g/ha [2, 14]: 95 to 100%; pest or weed control at 70 g/ha [2, 15]: 60 to 74%; pest or weed control at 140 g/ha [2, 15]: 60 to 74%; pest or weed control at 70 g/ha [2, 16]: 95 to 100%; pest or weed control at 140 g/ha [2, 16]: 95 to 100%; pest or weed control at 70 g/ha [2, 17]: 0 to 29%; pest or weed control at 140 g/ha [2, 17]: 0 to 29%
2 | Nc1c(Cl)c(C(=O)O)nc(-c2ccc(C(F)(F)F)c(F)c2)c1Cl [Compound 146] | 60 to 74 | 75 to 84 | 95 to 100 | 95 to 100 | 60 to 74 | 60 to 74 | 75 to 84 | 85 to 94 | 0 to 29 | 0 to 29 | 30 to 44 | 30 to 44 | 60 to 74 | 60 to 74 | 75 to 84 | 85 to 94 | 75 to 84 | 85 to 94 | 85 to 94 | 85 to 94 | pest or weed control at 70 g/ha [2, 14]: 85 to 94%; pest or weed control at 140 g/ha [2, 14]: 85 to 94%; pest or weed control at 70 g/ha [2, 15]: 0 to 29%; pest or weed control at 140 g/ha [2, 15]: 0 to 29%; pest or weed control at 70 g/ha [2, 16]: 95 to 100%; pest or weed control at 140 g/ha [2, 16]: 95 to 100%; pest or weed control at 70 g/ha [2, 17]: 0 to 29%; pest or weed control at 140 g/ha [2, 17]: 0 to 29%

Source: US9113629B2, “4-amino-6-(4-substituted-phenyl)-picolinates and 6-amino-2-(4-substituted-phenyl)-pyrimidine-4-carboxylates and their use as herbicides” (DOW AGROSCIENCES LLC, priority 2013, dated 2015)
